Source: patent US11596639B2, “Substituted indole Mcl-1 inhibitors” (Vanderbilt University, priority 2016, dated 2023)

What was measured:
Mcl-1 = Mcl-1 (Homo sapiens (Human), UniProt Q07820); experiment: Fluorescence polarization anisotropy (FPA) competition assay, FITC-Bak or FITC-Bim BH3 peptide; format: binding; conditions: read-out: Ki for Inhibition of Mcl-1 by FPA assay
[1] = system: H929 human cancer cell lines; experiment: Cellular viability / proliferation (Cell TiterGlo, 72 h); format: cell-based; conditions: Homo sapiens, NCI-H929, 72 h, read-out: GI50 on cellular proliferation of H929 human cancer cell lines, H929 cells, 72 h, Cell TiterGlo, 10% FBS
In short: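 Compounds were added as 2-fold serial dilutions from 50 μM (final DMSO <1%) to H929 cells seeded 1,000 per well in 10% FBS medium one day earlier.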

Chain of Mcl-1 (Q07820 172-327): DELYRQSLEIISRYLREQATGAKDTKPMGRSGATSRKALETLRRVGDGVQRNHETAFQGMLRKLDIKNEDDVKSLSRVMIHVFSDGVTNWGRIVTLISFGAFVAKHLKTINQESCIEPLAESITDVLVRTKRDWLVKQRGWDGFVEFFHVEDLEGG

SMILES	Ki (Mcl-1)	GI50 [1]
Cc1cc(OCCCc2c3n(c4c(-c5c(C)nn(C)c5C)c(Cl)ccc24)CCCN(c2cc(C(=O)O)c4cn(CCN5CCOCC5)nc4c2)C3=O)cc(C)c1Cl [Example 12, 6-[8-Chloro-11-[3-(4-chloro-3,5-dimethyl-phenoxy)propyl]-1-oxo-7-(1,3,5-trimethylpyrazol-4-yl)-4,5-dihydro-3H-[1,4]diazepino[1,2-a]indol-2-yl]-2-(2-morpholinoethyl)indazole-4-carboxylic acid]	1.2 nM	8300 nM
Cc1cc(N2C[C@@H](C)n3c(c(CCCOc4cc(C)c(Cl)c(C)c4)c4ccc(Cl)c(-c5c(C)nc(CN6CCOCC6)nc5C)c43)C2=O)c2c(c1)cc(C(=O)O)n2C [Example 416, (R)-7-(7-Chloro-10-(3-(4-chloro-3,5-dimethylphenoxy)propyl)-6-(4,6-dimethyl-2-(morpholinomethyl)pyrimidin-5-yl)-4-methyl-1-oxo-3,4-dihydropyrazino[1,2-a]indol-2(1H)-yl)-1,5-dimethyl-1H-indole-2-carboxylic acid]	< 1 nM	< 200 nM
Cc1cc(OCCCc2c3n(c4c(-c5c(C)nn(C)c5C)c(Cl)ccc24)CCCN(c2cc(C(=O)O)cc4c2N(C)CCO4)C3=O)cc(C)c1Cl [Example 61, 5-[8-chloro-11-[3-(4-chloro-3,5-dimethyl-phenoxy)propyl]-1-oxo-7-(1,3,5-trimethylpyrazol-4-yl)-4,5-dihydro-3H-[1,4]diazepino[1,2-a]indol-2-yl]-4-methyl-2,3-dihydro-1,4-benzoxazine-7-carboxylic acid]	5.7 nM	8200 nM
Cc1cc(OCCCc2c3n(c4c(-c5c(C)ncnc5C)c(Cl)ccc24)CCCN(c2ccc(C(=O)O)c4ncccc24)C3=O)cc(C)c1Cl [Example 147, 5-[8-Chloro-11-[3-(4-chloro-3,5-dimethyl-phenoxy)propyl]-7-(4,6-dimethylpyrimidin-5-yl)-1-oxo-4,5-dihydro-3H-[1,4]diazepino[1,2-a]indol-2-yl]quinoline-8-carboxylic acid]	1.8 nM	4300 nM
Cc1cc(N2C[C@@H](C)n3c(c(CCCOc4cc(C)c(Cl)c(C)c4)c4ccc(Cl)c(-c5c(C)nn(C)c5C)c43)C2=O)c2c(c1)cc(C(=O)O)n2CC1CCN(C)C1 (stereo partly drawn) [Example 330, 7-((R)-7-Chloro-10-(3-(4-chloro-3,5-dimethylphenoxy)propyl)-4-methyl-1-oxo-6-(1,3,5-trimethyl-1H-pyrazol-4-yl)-3,4-dihydropyrazino[1,2-a]indol-2(1H)-yl)-5-methyl-1-((1-methylpyrrolidin-3-yl)methyl)-1H-indole-2-carboxylic acid]	1.3 nM	2300 nM
Cc1cc(OCCCc2c3n(c4c(-c5c(C)ncnc5C)c(Cl)ccc24)CCCN(c2cccc4cc(C(=O)O)ccc24)C3=O)cc(C)c1Cl [Example 213, 5-[8-Chloro-11-[3-(4-chloro-3,5-dimethyl-phenoxy)propyl]-7-(4,6-dimethylpyrimidin-5-yl)-1-oxo-4,5-dihydro-3H-[1,4]diazepino[1,2-a]indol-2-yl]naphthalene-2-carboxylic acid]	< 1 nM	< 200 nM
COc1ccnc(-c2ccc3c(c2)c(N2C[C@@H](C)n4c(c(CCCOc5cc(C)c(Cl)c(C)c5)c5ccc(Cl)c(-c6c(C)nn(C)c6C)c54)C2=O)cn3C)n1 [Example 464, (R)-7-Chloro-10-(3-(4-chloro-3,5-dimethylphenoxy)propyl)-2-(5-(4-methoxypyrimidin-2-yl)-1-methyl-1H-indol-3-yl)-4-methyl-6-(1,3,5-trimethyl-1H-pyrazol-4-yl)-3,4-dihydropyrazino[1,2-a]indol-1(2H)-one]	3.5 nM	480 nM
Cc1cc(OCCCc2c3n(c4c(-c5c(C)nn(C)c5C)c(Cl)ccc24)CCCN(c2cc(C(=O)O)cc4cnn(C)c24)C3=O)cc(C)c1Cl [Example 123, 7-(8-Chloro-11-(3-(4-chloro-3,5-dimethylphenoxy)propyl)-1-oxo-7-(1,3,5-trimethyl-1H-pyrazol-4-yl)-4,5-dihydro-1H-[1,4]diazepino[1,2-a]indol-2(3H)-yl)-1-methyl-1H-indazole-5-carboxylic acid]	< 1 nM	6900 nM
